Data published in EP2818472A1, “Imidazo[4,5-c]pyridine and pyrrolo[3,2-c]pyridine compounds as G-protein-coupled receptor kinase 5 (GRK5) modulators” (Max-Planck-Gesellschaft zur Förderung der Wissenschaften …, priority 2013, dated 2014).

system: beta-TC6 cells; assay: Insulin HTRF assay (relative activity Ar) in beta-TC6 cells; format: cell-based, mouse; details: Mus musculus, Beta-TC6, 4 h, insulin HTRF, supernatant of beta-TC6 cells, incubation with test compound at 37°C for 2, 3, 4h; read-out: Ar (relative activity)
In short: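 beta-TC6 cells (15k/well, seeded 24 or 48 h) washed, then exposed to compound in induction buffer (0.5% DMSO final) for 2, 3 or 4 h at 37°C.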

With `CNc1nc2cnc(Nc3ccc(OC)cc3)cc2n1-c1cc(OC)c(OC)c(OC)c1` [Compound 490, N6-(4-methoxyphenyl)-N2-methyl-1-(3,4,5-trimethoxyphenyl)imidazo[4,5-c]pyridine-2,6-diamine] as the molecule, how does the Emax read?
Its Emax is 50 to 100%.

With `CNc1nc2cnc(Nc3cccc(O)c3)cc2n1-c1cc(OC)c(OC)c(OC)c1` [Compound 491, 3-[[2-(methylamino)-1-(3,4,5-trimethoxyphenyl)imidazo[4,5-c]pyridin-6-yl]amino]phenol] as the molecule, how does the Emax read?
Its Emax is 50 to 100%.

With `CNc1nc2cnc(Nc3cccc(NS(C)(=O)=O)c3)cc2n1-c1cc(OC)c(OC)c(OC)c1` [Compound 492, N-[3-[[2-(methylamino)-1-(3,4,5-trimethoxyphenyl)imidazo[4,5-c]pyridin-6-yl]amino]phenyl]methanesulfonamide] as the molecule, how does the Emax read?
Its Emax is 30 to 50%.

How did the Emax turn out when `CNc1nc2cnc(Nc3cccc(NC(C)=O)c3)cc2n1-c1cc(OC)c(OC)c(OC)c1` [Compound 493, N-[3-[[2-(methylamino)-1-(3,4,5-trimethoxyphenyl)imidazo[4,5-c]pyridin-6-yl]amino]phenyl]acetamide] was run?
Its Emax is 50 to 100%.

How did the Emax turn out when `CNc1nc2cnc(Nc3cccc(F)c3)cc2n1-c1cc(OC)c(OC)c(OC)c1` [Compound 494, N6-(3-fluorophenyl)-N2-methyl-1-(3,4,5-trimethoxyphenyl)imidazo[4,5-c]pyridine-2,6-diamine] was run?
The Emax was 30 to 50%.

`CNc1nc2cnc(Nc3ccc(OC)c(OC)c3)cc2n1CCOC` [Compound 495, N6-(3,4-dimethoxyphenyl)-1-(2-methoxyethyl)-N2-methyl-imidazo[4,5-c]pyridine-2,6-diamine] was tested. Which Emax did it give?
The Emax was 30 to 50%.

`CNc1nc2cnc(Nc3ccc(OC)cc3)cc2n1CCOC` [Compound 496, 1-(2-methoxyethyl)-N6-(4-methoxyphenyl)-N2-methyl-imidazo[4,5-c]pyridine-2,6-diamine] was tested. Which Emax did it give?
The Emax was 50 to 100%.

How did the Emax turn out when `CNc1nc2cnc(Nc3ccc4c(c3)OCO4)cc2n1CCOC` [Compound 497, N6-(1,3-benzodioxol-5-yl)-1-(2-methoxyethyl)-N2-methyl-imidazo[4,5-c]pyridine-2,6-diamine] was run?
The Emax was 50 to 100%.

With `CNc1nc2cnc(Nc3ccc(C(C)C)cc3)cc2n1CCOC` [Compound 498, N6-(4-isopropylphenyl)-1-(2-methoxyethyl)-N2-methyl-imidazo[4,5-c]pyridine-2,6-diamine] as the molecule, how does the Emax read?
The Emax was 30 to 50%.

For `CNc1nc2cnc(Nc3ccc(SC)cc3)cc2n1CCOC` [Compound 499, 1-(2-methoxyethyl)-N2-methyl-N6-(4-methylsulfanylphenyl)imidazo[4,5-c]pyridine-2,6-diamine], which Emax is on record?
The Emax was 50 to 100%.

With `CNc1nc2cnc(Nc3ccc(OC(C)C)cc3)cc2n1CCOC` [Compound 500, N6-(4-isopropoxyphenyl)-1-(2-methoxyethyl)-N2-methyl-imidazo[4,5-c]pyridine-2,6-diamine] as the molecule, how does the Emax read?
The Emax was 50 to 100%.

How did the Emax turn out when `CNc1nc2cnc(Nc3cc(OC)c(OC)c(OC)c3)cc2n1-c1ccccc1` [Compound 502, N2-methyl-1-phenyl-N6-(3,4,5-trimethoxyphenyl)imidazo[4,5-c]pyridine-2,6-diamine] was run?
The Emax was 50 to 100%.

With `CNc1nc2cnc(Nc3cccc(OC)c3)cc2n1-c1ccccc1` [Compound 503, N6-(3-methoxyphenyl)-N2-methyl-1-phenyl-imidazo[4,5-c]pyridine-2,6-diamine] as the molecule, how does the Emax read?
The Emax was 50 to 100%.

Which Emax does the source give for `CNc1nc2cnc(Nc3ccc(C(N)=O)cc3)cc2n1-c1ccccc1` [Compound 504, 4-[[2-(methylamino)-1-phenyl-imidazo[4,5-c]pyridin-6-yl]amino]benzamide] here?
The Emax was 50 to 100%.

With `CNc1nc2cnc(Nc3ccc4c(c3)OCCO4)cc2n1-c1ccccc1` [Compound 505, N6-(2,3-dihydro-1,4-benzodioxin-6-yl)-N2-methyl-1-phenyl-imidazo[4,5-c]pyridine-2,6-diamine] as the molecule, how does the Emax read?
The Emax was 50 to 100%.

With `CNc1nc2cnc(Nc3ccc(OC)c(OC)c3)cc2n1-c1ccccc1` [Compound 506, N6-(3,4-dimethoxyphenyl)-N2-methyl-1-phenyl-imidazo[4,5-c]pyridine-2,6-diamine] as the molecule, how does the Emax read?
The Emax was 50 to 100%.

Which Emax does the source give for `CNc1nc2cnc(Nc3cccnc3)cc2n1-c1ccccc1` [Compound 507, N2-methyl-1-phenyl-N6-(3-pyridyl)imidazo[4,5-c]pyridine-2,6-diamine] here?
Its Emax is 30 to 50%.

Which Emax does the source give for `CNc1nc2cnc(Nc3cccc(N(C)C)c3)cc2n1-c1ccccc1` [Compound 508, N6-[3-(dimethylamino)phenyl]-N2-methyl-1-phenyl-imidazo[4,5-c]pyridine-2,6-diamine] here?
Its Emax is 50 to 100%.

How did the Emax turn out when `CNc1nc2cnc(Nc3ccc(OC)cc3)cc2n1-c1ccccc1` [Compound 509, N6-(4-methoxyphenyl)-N2-methyl-1-phenyl-imidazo[4,5-c]pyridine-2,6-diamine] was run?
Its Emax is 50 to 100%.

With `CNc1nc2cnc(Nc3ccc(C(=O)OC)cc3)cc2n1-c1ccccc1` [Compound 511, methyl 4-[[2-(methylamino)-1-phenyl-imidazo[4,5-c]pyridin-6-yl]amino]benzoate] as the molecule, how does the Emax read?
The Emax was 30 to 50%.

How did the Emax turn out when `CNc1nc2cnc(Nc3ccc4c(c3)OCO4)cc2n1-c1ccccc1` [Compound 512, N6-(1,3-benzodioxol-5-yl)-N2-methyl-1-phenyl-imidazo[4,5-c]pyridine-2,6-diamine] was run?
The Emax was 50 to 100%.

Which Emax does the source give for `CNc1nc2cnc(Nc3cccc(O)c3)cc2n1-c1ccccc1` [Compound 513, 3-[[2-(methylamino)-1-phenyl-imidazo[4,5-c]pyridin-6-yl]amino]phenol] here?
The Emax was 50 to 100%.

With `CNc1nc2cnc(-c3cccs3)cc2n1-c1ccccc1` [Compound 514, N-methyl-1-phenyl-6-(2-thienyl)imidazo[4,5-c]pyridin-2-amine] as the molecule, how does the Emax read?
Its Emax is 30 to 50%.

For `CNc1nc2cnc(Nc3ccc(C(=O)N(C)C)cc3)cc2n1-c1ccccc1` [Compound 515, N,N-dimethyl-4-[[2-(methylamino)-1-phenyl-imidazo[4,5-c]pyridin-6-yl]amino]benzamide], which Emax is on record?
Its Emax is 50 to 100%.

With `CNc1nc2cnc(Nc3cccc(NC(C)=O)c3)cc2n1-c1ccccc1` [Compound 516, N-[3-[[2-(methylamino)-1-phenyl-imidazo[4,5-c]pyridin-6-yl]amino]phenyl]acetamide] as the molecule, how does the Emax read?
The Emax was 50 to 100%.

`CNc1nc2cnc(Nc3cccc(C(C)=O)c3)cc2n1-c1ccccc1` [Compound 517, 1-[3-[[2-(methylamino)-1-phenyl-imidazo[4,5-c]pyridin-6-yl]amino]phenyl]ethanone] was tested. Which Emax did it give?
The Emax was 50 to 100%.

Which Emax does the source give for `CNc1nc2cnc(Nc3ccc(S(C)(=O)=O)cc3)cc2n1-c1ccccc1` [Compound 518, N2-methyl-N6-(4-methylsulfonylphenyl)-1-phenyl-imidazo[4,5-c]pyridine-2,6-diamine] here?
The Emax was 50 to 100%.

For `CNc1nc2cnc(Nc3cc(OC)c(OC)c(OC)c3)cc2n1Cc1ccco1` [Compound 519, 1-(2-furylmethyl)-N2-methyl-N6-(3,4,5-trimethoxyphenyl)imidazo[4,5-c]pyridine-2,6-diamine], which Emax is on record?
The Emax was 50 to 100%.

How did the Emax turn out when `CNc1nc2cnc(Nc3ccc(OC)c(OC)c3)cc2n1Cc1ccco1` [Compound 520, N6-(3,4-dimethoxyphenyl)-1-(2-furylmethyl)-N2-methyl-imidazo[4,5-c]pyridine-2,6-diamine] was run?
Its Emax is 50 to 100%.

Which Emax does the source give for `CNc1nc2cnc(Nc3ccc(N4CCOCC4)cc3)cc2n1Cc1ccco1` [Compound 521, 1-(2-furylmethyl)-N2-methyl-N6-(4-morpholinophenyl)imidazo[4,5-c]pyridine-2,6-diamine] here?
Its Emax is greater than 100%.

`CNc1nc2cnc(Nc3cccc(N(C)C)c3)cc2n1Cc1ccco1` [Compound 522, N6-[3-(dimethylamino)phenyl]-1-(2-furylmethyl)-N2-methyl-imidazo[4,5-c]pyridine-2,6-diamine] was tested. Which Emax did it give?
The Emax was 30 to 50%.

For `CNc1nc2cnc(Nc3ccc(OC)cc3)cc2n1Cc1ccco1` [Compound 523, 1-(2-furylmethyl)-N6-(4-methoxyphenyl)-N2-methyl-imidazo[4,5-c]pyridine-2,6-diamine], which Emax is on record?
Its Emax is 50 to 100%.

How did the Emax turn out when `CNc1nc2cnc(Nc3ccc4c(c3)OCO4)cc2n1Cc1ccco1` [Compound 524, N6-(1,3-benzodioxol-5-yl)-1-(2-furylmethyl)-N2-methyl-imidazo[4,5-c]pyridine-2,6-diamine] was run?
Its Emax is 50 to 100%.

With `CNc1nc2cnc(-c3ccc(N(C)C)cc3)cc2n1Cc1ccccc1` [Compound 525, 1-benzyl-6-(4-dimethylaminophenyl)-N-methyl-imidazo[4,5-c]pyridin-2-amine] as the molecule, how does the Emax read?
Its Emax is 30 to 50%.

For `CNc1nc2cnc(Nc3cc(OC)c(OC)c(OC)c3)cc2n1Cc1ccccc1` [Compound 526, 1-benzyl-N2-methyl-N6-(3,4,5-trimethoxyphenyl)imidazo[4,5-c]pyridine-2,6-diamine], which Emax is on record?
The Emax was 50 to 100%.

`CNc1nc2cnc(Nc3ccc(NC(C)=O)cc3)cc2n1Cc1ccccc1` [Compound 527, N-[4-[[1-benzyl-2-(methylamino)imidazo[4,5-c]pyridin-6-yl]amino]phenyl]acetamide] was tested. Which Emax did it give?
The Emax was 50 to 100%.

Which Emax does the source give for `CNc1nc2cnc(Nc3ccc4c(c3)OCCO4)cc2n1Cc1ccccc1` [Compound 528, 1-benzyl-N6-(2,3-dihydro-1,4-benzodioxin-6-yl)-N2-methyl-imidazo[4,5-c]pyridine-2,6-diamine] here?
The Emax was 50 to 100%.

Which Emax does the source give for `CNc1nc2cnc(-c3ccccc3Oc3ccccc3)cc2n1Cc1ccccc1` [Compound 529, 1-benzyl-N-methyl-6-(2-phenoxyphenyl)imidazo[4,5-c]pyridin-2-amine] here?
The Emax was 30 to 50%.

For `CNc1nc2cnc(Nc3cccc(C)c3)cc2n1Cc1ccccc1` [Compound 530, 1-benzyl-N2-methyl-N6-(m-tolyl)imidazo[4,5-c]pyridine-2,6-diamine], which Emax is on record?
The Emax was 30 to 50%.

`CNc1nc2cnc(Nc3ccc(OC)cc3)cc2n1Cc1ccccc1` [Compound 531, 1-benzyl-N6-(4-methoxyphenyl)-N2-methyl-imidazo[4,5-c]pyridine-2,6-diamine] was tested. Which Emax did it give?
The Emax was 30 to 50%.

same assay, conditions: insulin HTRF, supernatant of beta-TC6 cells, incubation with test compound at 37°C for 2, 3, 4h

Which “Ar (relative activity)” value does the source give for `CNc1nc2cnc(-c3ccc(N(C)C)cc3)cc2n1-c1ccccc1` [Compound 501, 6-(4-dimethylaminophenyl)-N-methyl-1-phenyl-imidazo[4,5-c]pyridin-2-amine] here?
The value was “++++ (Ar ≥ 100 %)”.

With `CNc1nc2cnc(-c3ccc(CO)cc3)cc2n1-c1ccccc1` [Compound 510, [4-[2-(methylamino)-1-phenyl-imidazo[4,5-c]pyridin-6-yl]phenyl]methanol] as the molecule, how does the “Ar (relative activity)” value read?
The value was “++ (30 % ≤ Ar < 50 %)”.
